In US20220409619A1, “INHIBITORS OF HUMAN IMMUNODEFICIENCY VIRUS REPLICATION” (VIIV HEALTHCARE UK (No. 5) LIMITED, priority 2019, published 2022):

Assays:
[1] = test system: recombinant NL4-3 virus (nef section replaced with Renilla luciferase gene) in MT-2 cells; experiment: HIV cell culture assay (antiviral activity, luciferase readout); type: cell-based; conditions: Renilla, NL43
In short: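 MT-2 cells were infected for 4-5 days with 293T-derived NL4-3 Renilla-luciferase reporter virus in the presence of serial compound dilutions. Luciferase was read with EnduRen live-cell substrate. EC50 was fitted with the median effect equation.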

[2] = Compound cytotoxicity, XTT-based colorimetric assay; type: cell-based; conditions: human; uninfected MT2 cells, day 4, XTT-based colorimetric assay
In short: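 Run under the antiviral-assay protocol but without virus. Viability was read on day 4 and CC50 values were derived from the readout.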

For CCOc1cnc(-c2cc(=O)n(-c3ccc(Cl)c4c(NS(C)(=O)=O)nn(C)c34)c([C@H](Cc3cc(F)cc(F)c3)NC(=O)Cn3nc(C(F)F)c4c3C(F)(F)[C@@H]3C[C@H]43)n2)nc1 (atropisomer, axis not shown; (aR)) [Example 14, N-((S)-1-((1′P)-1′-(4-chloro-1-methyl-3-(methylsulfonamido)-1H-indazol-7-yl)-5-ethoxy-6′-oxo-1′,6′-dihydro-[2,4′-bipyrimidin]-2′-yl)-2-(3,5-difluorophenyl)ethyl)-2-((3bS,4aR)-3-(difluoromethyl)-5,5-difluoro-3b,4,4a,5-tetrahydro-1H-cyclopropa[3,4]cyclopenta[1,2-c]pyrazol-1-yl)acetamide], the EC50 [1] was 0.042 nM and the CC50 at 4 days [2] was greater than 100 nM.
Work on O=C(Cn1nc(C(F)F)c2c1C(F)(F)[C@@H]1C[C@H]21)N[C@@H](Cc1cc(F)cc(F)c1)c1nc(-c2ccc(C(F)(F)F)nc2)cc(=O)n1-c1ccc(Cl)c2c(NS(=O)(=O)C3CC3)nn(CC(F)F)c12 (atropisomer, axis not shown; (P)) [Example 38, N-((S)-1-((1P)-1-(4-chloro-3-(cyclopropanesulfonamido)-1-(2,2-difluoroethyl)-1H-indazol-7-yl)-6-oxo-4-(6-(trifluoromethyl)pyridin-3-yl)-1,6-dihydropyrimidin-2-yl)-2-(3,5-difluorophenyl)ethyl)-2-((3bS,4aR)-3-(difluoromethyl)-5,5-difluoro-3b,4,4a,5-tetrahydro-1H-cyclopropa[3,4]cyclopenta[1,2-c]pyrazol-1-yl)acetamide] yielded an EC50 [1] of 0.39 nM and a CC50 at 4 days [2] greater than 100 nM.
Compound CCOc1ncc(-c2cc(=O)n(-c3ccc(Cl)c4c(NS(=O)(=O)C5CC5)nn(CC(F)F)c34)c([C@H](Cc3cc(F)cc(F)c3)NC(=O)Cn3nc(C(F)F)c4c3C(F)(F)[C@@H]3C[C@H]43)n2)cn1 (atropisomer, axis not shown; (P)) [Example 49, N-((S)-1-((1P)-1-(4-chloro-3-(cyclopropanesulfonamido)-1-(2,2-difluoroethyl)-1H-indazol-7-yl)-2′-ethoxy-6-oxo-1,6-dihydro-[4,5′-bipyrimidin]-2-yl)-2-(3,5-difluorophenyl)ethyl)-2-((3bS,4aR)-3-(difluoromethyl)-5,5-difluoro-3b,4,4a,5-tetrahydro-1H-cyclopropa[3,4]cyclopenta[1,2-c]pyrazol-1-yl)acetamide] has an EC50 [1] of 0.58 nM and a CC50 at 4 days [2] greater than 100 nM.
Compound Cn1nc(NS(C)(=O)=O)c2c(Cl)ccc(-n3c([C@H](Cc4cc(F)cc(F)c4)NC(=O)Cn4nc(C(F)F)c5c4C(F)(F)[C@@H]4C[C@H]54)nc(-c4ccccc4)cc3=O)c21 (atropisomer, axis not shown; (aR)) [Example 1, N-((S)-1-(1-(4-chloro-1-methyl-3-(methylsulfonamido)-1H-indazol-7-yl)-6-oxo-4-phenyl-1,6-dihydropyrimidin-2-yl)-2-(3,5-difluorophenyl)ethyl)-2-((3bS,4aR)-3-(difluoromethyl)-5,5-difluoro-3b,4,4a,5-tetrahydro-1H-cyclopropa[3,4]cyclopenta[1,2-c]pyrazol-1-yl)acetamide] has an EC50 [1] of 0.72 nM and a CC50 at 4 days [2] greater than 500 nM.
In the case of CCOc1ccc(-c2cc(=O)n(-c3ccc(Cl)c4c(NS(=O)(=O)C5CC5)nn(CC(F)F)c34)c([C@H](Cc3cc(F)cc(F)c3)NC(=O)Cn3nc(C(F)F)c4c3C(F)(F)[C@@H]3C[C@H]43)n2)cn1 (atropisomer, axis not shown; (P)) [Example 37, N-((S)-1-((1P)-1-(4-chloro-3-(cyclopropanesulfonamido)-1-(2,2-difluoroethyl)-1H-indazol-7-yl)-4-(6-ethoxypyridin-3-yl)-6-oxo-1,6-dihydropyrimidin-2-yl)-2-(3,5-difluorophenyl)ethyl)-2-((3bS,4aR)-3-(difluoromethyl)-5,5-difluoro-3b,4,4a,5-tetrahydro-1H-cyclopropa[3,4]cyclopenta[1,2-c]pyrazol-1-yl)acetamide], the EC50 [1] is reported as 3.7 nM and the CC50 at 4 days [2] is reported as greater than 100 nM.
Compound Cc1ccnc(-c2cc(=O)n(-c3ccc(Cl)c4c(NS(=O)(=O)C5CC5)nn(CC(F)F)c34)c([C@H](Cc3cc(F)cc(F)c3)NC(=O)Cn3nc(C(F)F)c4c3C(F)(F)[C@@H]3C[C@H]43)n2)n1 (atropisomer, axis not shown; (aR)) [Example 43, N-((S)-1-((1′P)-1′-(4-chloro-3-(cyclopropanesulfonamido)-1-(2,2-difluoroethyl)-1H-indazol-7-yl)-4-methyl-6′-oxo-1′,6′-dihydro-[2,4′-bipyrimidin]-2′-yl)-2-(3,5-difluorophenyl)ethyl)-2-((3bS,4aR)-3-(difluoromethyl)-5,5-difluoro-3b,4,4a,5-tetrahydro-1H-cyclopropa[3,4]cyclopenta[1,2-c]pyrazol-1-yl)acetamide] has an EC50 [1] of 0.17 nM and a CC50 at 4 days [2] greater than 100 nM.
With Cn1nc(NS(C)(=O)=O)c2c(Cl)ccc(-n3c([C@H](Cc4cc(F)cc(F)c4)NC(=O)Cn4nc(C(F)F)c5c4C(F)(F)[C@@H]4C[C@H]54)nc(-c4csc(C(C)(C)O)n4)cc3=O)c21 (atropisomer, axis not shown; (P)) [Example 18, N-((S)-1-((1P)-1-(4-chloro-1-methyl-3-(methylsulfonamido)-1H-indazol-7-yl)-4-(2-(2-hydroxypropan-2-yl)thiazol-4-yl)-6-oxo-1,6-dihydropyrimidin-2-yl)-2-(3,5-difluorophenyl)ethyl)-2-((3bS,4aR)-3-(difluoromethyl)-5,5-difluoro-3b,4,4a,5-tetrahydro-1H-cyclopropa[3,4]cyclopenta[1,2-c]pyrazol-1-yl)acetamide] the EC50 [1] was 0.47 nM and the CC50 at 4 days [2] was greater than 100 nM.
With Cn1nc(NS(C)(=O)=O)c2c(Cl)ccc(-n3c([C@H](Cc4cc(F)cc(F)c4)NC(=O)Cn4nc(C(F)F)c5c4C(F)(F)[C@@H]4C[C@H]54)nc(-c4cccc(F)n4)cc3=O)c21 (atropisomer, axis not shown; (P)) [Example 23, N-((S)-1-((1P)-1-(4-chloro-1-methyl-3-(methylsulfonamido)-1H-indazol-7-yl)-4-(6-fluoropyridin-2-yl)-6-oxo-1,6-dihydropyrimidin-2-yl)-2-(3,5-difluorophenyl)ethyl)-2-((3bS,4aR)-3-(difluoromethyl)-5,5-difluoro-3b,4,4a,5-tetrahydro-1H-cyclopropa[3,4]cyclopenta[1,2-c]pyrazol-1-yl)acetamide] the EC50 [1] was 0.42 nM and the CC50 at 4 days [2] was greater than 100 nM.
Compound CCOc1ccc(-c2cc(=O)n(-c3ccc(Cl)c4c(NS(C)(=O)=O)nn(C)c34)c([C@H](Cc3cc(F)cc(F)c3)NC(=O)Cn3nc(C(F)F)c4c3C(F)(F)[C@@H]3C[C@H]43)n2)cn1 (atropisomer, axis not shown; (P)) [Example 22, N-((S)-1-((1P)-1-(4-chloro-1-methyl-3-(methylsulfonamido)-1H-indazol-7-yl)-4-(6-ethoxypyridin-3-yl)-6-oxo-1,6-dihydropyrimidin-2-yl)-2-(3,5-difluorophenyl)ethyl)-2-((3bS,4aR)-3-(difluoromethyl)-5,5-difluoro-3b,4,4a,5-tetrahydro-1H-cyclopropa[3,4]cyclopenta[1,2-c]pyrazol-1-yl)acetamide] has an EC50 [1] of 0.46 nM and a CC50 at 4 days [2] greater than 100 nM.
In the case of O=C(Cn1nc(C(F)F)c2c1C(F)(F)[C@@H]1C[C@H]21)N[C@@H](Cc1cc(F)cc(F)c1)c1nc(-c2nccc(C(F)(F)F)n2)cc(=O)n1-c1ccc(Cl)c2c(NS(=O)(=O)C3CC3)nn(CC(F)F)c12 (atropisomer, axis not shown; (aR)) [Example 46, N-((S)-1-((1′P)-1′-(4-chloro-3-(cyclopropanesulfonamido)-1-(2,2-difluoroethyl)-1H-indazol-7-yl)-6′-oxo-4-(trifluoromethyl)-1′,6′-dihydro-[2,4′-bipyrimidin]-2′-yl)-2-(3,5-difluorophenyl)ethyl)-2-((3bS,4aR)-3-(difluoromethyl)-5,5-difluoro-3b,4,4a,5-tetrahydro-1H-cyclopropa[3,4]cyclopenta[1,2-c]pyrazol-1-yl)acetamide], the EC50 [1] is reported as 0.05 nM and the CC50 at 4 days [2] is reported as greater than 100 nM.
Compound CC(C)(C#Cc1cc(=O)n(-c2ccc(Cl)c3c(NS(=O)(=O)C4CC4)nn(CC(F)F)c23)c([C@H](Cc2cc(F)cc(F)c2)NC(=O)Cn2nc(C(F)(F)F)c3c2C(F)(F)[C@@H]2C[C@H]32)n1)S(C)(=O)=O (atropisomer, axis not shown; (P)) [Example 36, N-((S)-1-((1P)-1-(4-chloro-3-(cyclopropanesulfonamido)-1-(2,2-difluoroethyl)-1H-indazol-7-yl)-4-(3-methyl-3-(methylsulfonyl)but-1-yn-1-yl)-6-oxo-1,6-dihydropyrimidin-2-yl)-2-(3,5-difluorophenyl)ethyl)-2-((3bS,4aR)-5,5-difluoro-3-(trifluoromethyl)-3b,4,4a,5-tetrahydro-1H-cyclopropa[3,4]cyclopenta[1,2-c]pyrazol-1-yl)acetamide] has an EC50 [1] of 0.16 nM and a CC50 at 4 days [2] greater than 100 nM.
In the case of O=C(Cn1nc(C(F)F)c2c1C(F)(F)[C@@H]1C[C@H]21)N[C@@H](Cc1cc(F)cc(F)c1)c1nc(-c2nccc(C(F)F)n2)cc(=O)n1-c1ccc(Cl)c2c(NS(=O)(=O)C3CC3)nn(CC(F)F)c12 (atropisomer, axis not shown; (aR)) [Example 27, N-((S)-1-((1′P)-1′-(4-chloro-3-(cyclopropanesulfonamido)-1-(2,2-difluoroethyl)-1H-indazol-7-yl)-4-(difluoromethyl)-6′-oxo-1′,6′-dihydro-[2,4′-bipyrimidin]-2′-yl)-2-(3,5-difluorophenyl)ethyl)-2-((3bS,4aR)-3-(difluoromethyl)-5,5-difluoro-3b,4,4a,5-tetrahydro-1H-cyclopropa[3,4]cyclopenta[1,2-c]pyrazol-1-yl)acetamide], the EC50 [1] is reported as 0.13 nM and the CC50 at 4 days [2] is reported as greater than 100 nM.
